Data reported in patent publication US20060148732A1, “Inhibition of NF-kappaB by triterpene compositions” (priority 2000, published 2006).

What was measured:
[1] = test system: Jurkat (T-cell leukemia) cells; experiment: Cytotoxicity screen (MTT/crystal violet, 72 h); assay type: cell-based, human; conditions: for inhibitory concentration 50 (IC50), growth inhibition: MTT, 72 hours
Method: Each of the extracts was then screened against a panel of human tumor and non-tumor cells including human ovarian cancer cell lines, T-leukemic cells, human epidermoid cells, human breast cancer cells, human prostate cancer cells, human foreskin fibroblast cells, human endothelial cells, and human renal cancer cells. The cells were first plated in 96-well plates for 18-24 hours at 37° C. The cells were then exposed to varying concentrations of the plant extracts, and incubated for 72 hours at 37° C., and stained with either MTT (3-(4,5-dimethylethiazol-2-yl)-2,5-diphenyl tetrazolium bromide; Sigma Chemical Co.) for 4 hours or crystal violet (Sigma Chemical Co.) for 20 minutes at room temperature. The MTT plates received lysis buffer (20% sodium dodecyl sulfate in 50% DMF) and were incubated for an additional 6 hours before taking an OD reading at 570 nm. The crystal violet plates were washed, dye was extracted for 3-4 hours with Sorenson's buffer (0.1 M sodium citrate (pH 4.2), 50% v/v ethanol), and the plates were read at 570-600 nm (Mujoo et al., 1996). Cytotoxicity of the screened extracts was indicated by comparing the OD readings between the treated media alone and the cells treated with the plant extract. Percent cytotoxicity was calculated by 100-% of control, where % of control =[((OD of cells treated with plant extract (treated sample))/(OD of cells exposed to media alone (untreated sample)))×100].
Assay for Growth Inhibition. The growth inhibitory activity of F094 and avicins was measured by the MTT [3-(4, 5-Dimethylthiazol-2-yl)-2, 5-diphenyl tetrazolium bromide)] reduction assay (Deng et al., 1999). Cells (1×10^4/well) were cultured with varying concentrations of F094, avicin D, or avicin G in 96 well plates for 72 hours at 37° C. The cells were stained with MTT for 2 hours and then incubated with lysis buffer (20% sodium dodecyl sulfate in 50% N,N-dimethylformamide) for another 6 hours. Optical density at 570 nm was used as a measure of cell viability.

PARP in Jurkat cells = experiment: Immunoblot analysis of PARP degradation; assay type: cell-based, human; conditions: 2 μg/ml
Method: Apoptosis induced by F035 & D1 was examined by proteolytic cleavage of poly (ADP-ribose) polymerase (PARP). Jurkat cells (2×10^6/ml) were treated with F035 (2 μg/ml) and D1 (2 μg/ml) for different lengths of time. Cell lysates were prepared in buffer containing 20 mM HEPES, 250 mM NaCl, 2 mM EDTA, 0.1% NP-40, 2 μg/ml leupeptin, 2 μg/ml aprotinin, 0.5 μg/ml benzamidine, 1 mM DTT and 1 mM PMSF. Cellular proteins (60 μg/ml) were separated on a 7.5% SDS polyacrylamide gel and electrotransferred onto a nitrocellulose membrane. The membrane was probed first with monclonal anti-PARP antibody (PharMingen) and then with anti-mouse antibody conjugated to horse radish peroxidase (HRPO). Protein bands were detected by chemiluminescense (ECL, Amersham). The extent of cleavage of the 116-kDa PARP into 85-kDa and 41-kDa peptide products was used as a measure of apoptosis (Tewari et al., 1995).
Immunoblot Analysis of PARP Degradation. Induction of apoptosis was also examined by proteolytic cleavage of PARP (Nicholson and Thornberry, 1997). Jurkat cells (3×10^6) were treated with 2 μg/ml of F094, avicin D, or avicin G at 37° C. Cell lysates were prepared in a buffer containing 20 mM HEPES, 250 mM NaCl, 2 mM EDTA, 0.1% NP-40, 2 μg/ml leupeptin, 2 μg/ml aprotinin, 0.5 μg/ml benzamidine, 1 mM DTT, and 1 mM PMSF. Cellular proteins (60 μg/ml) were separated on a 7.5% SDS polyacrylamide gel and electrotransferred onto a nitrocellulose membrane. The membrane was probed first with monoclonal anti-PARP antibody (Pharmingen) and then with anti-mouse antibody conjugated to horseradish peroxidase (HRPO). Protein bands were detected by chemiluminescence (ECL). The appearance of an 85 kDa cleavage product was used as a measure of apoptosis.

Jurkat cells = experiment: Mitochondrial membrane potential (DiOC6); assay type: cell-based, human; conditions: 2 μg/ml
Method: Measurement of mitochondrial membrane potential (Δψm). Mitochondrial Δψm was measured as described by Zamzami, et al., 1995. After treatment with F094, avicin D, or avicin G (2 μg/ml) at 37° C, Jurkat cells were incubated with 80 nM of DiOC6 for 15 minutes at room temperature. They were then analyzed on a cytofluorometer (Facscalibar, excitation: 488 nm and emission: 552 nm).

[2] = Stability in solution during purification; assay type: physicochemical; conditions: dilute acid solutions vs water at 40° C.
From the text: The fraction D (45% D1) from the PFP Prep column was first fractionated on a Waters C-18 column (25×100 mm). The mobile phase was 61% methanol in water with 0.1% TFA. […] A sample of D1 with 100% chromatographic purity (FIG. 35) was produced by further fractionation of the impure D1 on YMC C18-Aq column with 33% acetonitrile/water with 0.1% TFA as the mobile phase. […] Therefore, 0.1% TFA was included in solvents during the purification of D1.

[3] = Biological assays of purified compounds (not specified)
iNOS in RAW 264.7 cells = experiment: LPS-induced iNOS expression (western blot); assay type: cell-based; conditions: RAW264.7; 2 μg/ml 16 h; LPS 100 ng/ml
Method: Induction and Measurement of iNOS and COX-2. RAW 264.7 cells (0.5×10^6/ml) were plated in 100 mm dishes and treated with F094 or monoterpene/triterpene glycosides (2 μg/ml) for 16 h. Next, the cells were exposed to 100 ng/ml of LPS for 24 h. Cells were lysed in a buffer containing 50 mM Tris, pH 7.4, 100 mM NaCl, 0.5% NP-40, 10 μg/ml leupeptin, 5 μg/ml aprotinin, and 100 μM PMSF. 70 μg of cellular protein were then loaded on a 7.5% SDS-polyacrylamide gel and electrotransferred onto a nitrocellulose membrane. Levels of iNOS and COX-2 were analyzed by Western blot analysis using rabbit anti-iNOS (Santa Cruz) and goat anti-COX-2 antibodies respectively.

SMILES | inhibitory concentration 50 (IC50), growth inhibition [1] [µg/mL] | Cytotoxicity IC50 ([1]; pH 6.5) [µg/mL] | Cytotoxicity IC50 ([1]; pH 7.5) [µg/mL] | time to (almost) complete cleavage of PARP (PARP in Jurkat cells) [h] | mitochondrial membrane potential (Δψm) (Jurkat cells; 16 hours) | mitochondrial membrane potential (Δψm) (Jurkat cells; up to 8 hours) | stability in solution [2] | biological activity relative to other compounds [3] | levels of LPS-induced iNOS (iNOS in RAW 264.7 cells)
C=C[C@](C)(O)CC/C=C(\CO)C(=O)O[C@H]1[C@H](O)[C@@H](O)[C@H](O[C@@](C)(C=C)CC/C=C(\CO)C(=O)O[C@H]2C[C@]3(C(=O)O[C@@H]4O[C@H](CO)[C@@H](O)[C@H](O)[C@H]4O[C@@H]4O[C@@H](C)[C@H](O[C@@H]5O[C@@H](CO)[C@H](O)[C@H]5O)[C@@H](O[C@@H]5O[C@H](CO)[C@@H](O)[C@H](O)[C@H]5O)[C@H]4O)[C@H](O)C[C@]4(C)C(=CC[C@@H]5[C@@]6(C)CC[C@H](O[C@@H]7O[C@H](CO[C@@H]8O[C@H](C)[C@H](O)[C@H](O)[C@H]8O[C@@H]8OC[C@@H](O)[C@H](O)[C@H]8O)[C@@H](O)[C@H](O)[C@H]7NC(C)=O)C(C)(C)[C@@H]6CC[C@]54C)[C@@H]3CC2(C)C)O[C@@H]1C [Fraction D1] | 0.320 to 0.326 | 1.01 | 0.98 | 8 to 16 | significant drop | did not produce any significant changes | more stable in dilute acid solutions than in water | considerable biological activity | 
C=C[C@](C)(O)CC/C=C(\C)C(=O)O[C@H]1[C@H](O)[C@@H](O)[C@H](O[C@@](C)(C=C)CC/C=C(\CO)C(=O)O[C@H]2C[C@]3(C(=O)O[C@@H]4O[C@H](CO)[C@@H](O)[C@H](O)[C@H]4O[C@@H]4O[C@@H](C)[C@H](O[C@@H]5O[C@@H](CO)[C@H](O)[C@H]5O)[C@@H](O[C@@H]5O[C@H](CO)[C@@H](O)[C@H](O)[C@H]5O)[C@H]4O)[C@H](O)C[C@]4(C)C(=CC[C@@H]5[C@@]6(C)CC[C@H](O[C@@H]7O[C@H](CO[C@@H]8O[C@H](C)[C@H](O)[C@H](O)[C@H]8O[C@@H]8OC[C@@H](O)[C@H](O)[C@H]8O)[C@@H](O)[C@H](O)[C@H]7NC(C)=O)C(C)(C)[C@@H]6CC[C@]54C)[C@@H]3CC2(C)C)O[C@@H]1C [Fraction G1] | 0.160 to 0.181 | 0.3 | 0.49 | ≤ 4 | significant drop | did not produce any significant changes |  | more biologically active than D1 | decreases the levels of LPS-induced iNOS and COX-2 sharply
